Laboratory results taken from the NIST ThermoML archive (doi:10.1016/j.jct.2010.04.003).

Test: xn = mol fraction of the nth substance listed
Details: 101 kPa, Liquid, Buoyancy - hydrostatic balance with magnetic suspension - one sinker

CN(C)P(=O)(N(C)C)N(C)C [tris(dimethylamino)phosphine oxide] + O
mass density [kg/m3]
Details | 288.15 K | 293.15 K | 298.15 K | 303.15 K | 308.15 K
x1 = 0.0023 | 1001.1 | 1000.05 | 998.77 | 997.25 | 995.51
x1 = 0.00503 | 1003.51 | 1002.29 | 1000.85 | 999.27 | 997.34
x1 = 0.0101 | 1007.82 | 1006.2 | 1004.52 | 1002.76 | 1000.79
x1 = 0.0297 | 1024.31 | 1021.59 | 1018.84 | 1016.02 | 1013.39
x1 = 0.05 | 1036.43 | 1033.08 | 1029.72 | 1026.56 | 1023.13
x1 = 0.07 | 1043.92 | 1040.44 | 1036.96 | 1033.47 | 1029.7
x1 = 0.1 | 1050.24 | 1046.86 | 1042.73 | 1039 | 1034.91
x1 = 0.1496 | 1054.84 | 1050.62 | 1046.2 | 1041.95 | 1037.57
x1 = 0.1999 | 1054.7 | 1050.33 | 1045.83 | 1041.49 | 1037.05
x1 = 0.3008 | 1049.56 | 1045 | 1040.47 | 1036.04 | 1031.66
x1 = 0.3999 | 1044.61 | 1040.34 | 1035.76 | 1031.36 | 1026.94
x1 = 0.5002 | 1040.86 | 1036.54 | 1032.12 | 1027.81 | 1023.35
x1 = 0.6 | 1038.03 | 1033.74 | 1029.39 | 1025.15 | 1020.66
x1 = 0.6997 | 1035.45 | 1031.15 | 1026.79 | 1022.51 | 1018
x1 = 0.8004 | 1033.06 | 1028.72 | 1024.37 | 1020.03 | 1015.57
x1 = 0.8505 | 1031.95 | 1027.66 | 1023.31 | 1019.05 | 1014.64
x1 = 0.91 | 1030.54 | 1026.29 | 1021.95 | 1017.74 | 1013.41
x1 = 0.9499 | 1029.63 | 1025.4 | 1021.07 | 1016.88 | 1012.59
x1 = 0.9703 | 1029.16 | 1024.92 | 1020.61 | 1016.44 | 1012.14
x1 = 0.9849 | 1028.81 | 1024.6 | 1020.3 | 1016.12 | 1011.86
x1 = 0.9937 | 1028.61 | 1024.4 | 1020.1 | 1015.93 | 1011.68
x1 = 0.9967 | 1028.54 | 1024.33 | 1020.03 | 1015.86 | 1011.61
x1 = 1 | 1028.47 | 1024.26 | 1019.96 | 1015.79 | 1011.54
